# Results reported in ChEMBL document CHEMBL1138983, “Design, synthesis, and evaluation of novel 6-chloro-/fluorochromone derivatives as potential topoisomerase inhibitor anticancer agents” (2006).
# What was measured:
# [1] = tested on: Mus musculus; experiment: Increase in life span in Ehrlich carcinoma bearing Swiss Albino mice 9 days post dose administered ip; type: functional
# [2] = tested on: Mus musculus; experiment: Effect on weight variation in Ehrlich carcinoma bearing Swiss Albino mice 9 days post dose administered ip; type: functional
# [3] = tested on: Ehrlich; experiment: Cytotoxicity against Ehrlich ascites carcinoma cells at 125 ug/ml; type: functional, Mus musculus
# [4] = tested on: Ehrlich; experiment: Cytotoxicity against Ehrlich ascites carcinoma cells at 250 ug/ml; type: functional, Mus musculus
# [5] = tested on: Ehrlich; experiment: Cytotoxicity against Ehrlich ascites carcinoma cells at 500 ug/ml; type: functional, Mus musculus
# [6] = tested on: Mus musculus; experiment: Median survival time in Ehrlich carcinoma bearing Swiss Albino mice 9 days post dose administered ip; type: functional
# [7] = tested on: Mus musculus; experiment: Increase in life span in Ehrlich carcinoma bearing Swiss Albino mice 9 days post dose at 3.5 mg/kg, ip; type: functional, organism-based; parameters: dose 3.5 mg/kg
# [8] = tested on: Mus musculus; experiment: Effect on weight variation in Ehrlich carcinoma bearing Swiss Albino mice 9 days post dose at 3.5 mg/kg, ip; type: functional, organism-based; parameters: dose 3.5 mg/kg
# [9] = tested on: Mus musculus; experiment: Median survival time in Ehrlich carcinoma bearing Swiss Albino mice 9 days post dose at 3.5 mg/kg, ip; type: functional, organism-based; parameters: dose 3.5 mg/kg
Compound,Activity [1],Activity [2],Activity [3],Activity [4],Activity [5],MST [6],Activity [7],Activity [8],MST [9]
O=Cc1c(N2CCCCC2)oc2cc(N3CCCCC3)c(F)cc2c1=O,17.9%,-9.5%,100%,100%,100%,11.6 days,–,–,–
CN1CCN(c2cc3oc(N4CCN(C)CC4)c(C=O)c(=O)c3cc2F)CC1,–,–,0%,0%,20%,–,–,–,–
O=Cc1c(N2CCCC2)oc2ccc(Cl)cc2c1=O,–,–,90%,100%,100%,–,–,–,–
O=Cc1c(N2CCOCC2)oc2ccc(Cl)cc2c1=O,23.1%,-16.81%,60%,100%,100%,12 days,–,–,–
CN1CCN(c2oc3ccc(Cl)cc3c(=O)c2C=O)CC1,–,–,50%,60%,60%,–,–,–,–
O=Cc1c(N2CCCCC2)oc2ccc(Cl)cc2c1=O,–,–,100%,100%,100%,–,–,–,–
O=Cc1c(N2CCOCC2)oc2cc(N3CCOCC3)c(F)cc2c1=O,16.9%,-15.89%,0%,0%,70%,11.14 days,–,–,–
CISPLATIN,–,–,–,–,–,–,75.4%,-17.3%,17.3 days
